Test results as given in patent publication US20250302815A1, “PROTEIN TYROSINE PHOSPHATASE TARGETING LIGANDS” (CALICO LIFE SCIENCES LLC, priority 2021, published 2025).

How the values were obtained:
[1] = target: T1, PTPN2 (HiBIT-PTPN2 in 293T.109 cells) (Homo sapiens, UniProt P17706); assay: HiBiT Degradation 293T.109 PTPN2 (Nano-Glo HiBiT Lytic Assay); type: cell-based; conditions: 24.0 hours
T1 construct: expressed in transfected cells; host or cells: 293T.109 (293T WT from ATCC)
T1 sequence (P17706 1-415): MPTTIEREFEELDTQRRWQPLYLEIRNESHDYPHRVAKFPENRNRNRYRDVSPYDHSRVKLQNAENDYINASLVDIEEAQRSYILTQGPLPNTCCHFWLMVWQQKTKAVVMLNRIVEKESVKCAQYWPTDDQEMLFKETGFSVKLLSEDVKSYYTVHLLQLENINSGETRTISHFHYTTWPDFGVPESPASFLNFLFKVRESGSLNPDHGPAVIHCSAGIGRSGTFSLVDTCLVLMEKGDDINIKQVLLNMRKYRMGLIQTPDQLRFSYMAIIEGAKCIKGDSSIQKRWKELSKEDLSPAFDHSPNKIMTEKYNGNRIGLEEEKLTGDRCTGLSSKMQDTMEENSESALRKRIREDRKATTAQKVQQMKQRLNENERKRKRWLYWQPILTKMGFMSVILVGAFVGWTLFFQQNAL
Source text: Dulbecco's modified Eagle medium (DMEM) without phenol red and fetal bovine serum (FBS) were purchased from Gibco (Grand Island, NY, USA). Nano-Glo® HiBIT Lytic Assay System was purchased from Promega (Madison, WI, USA). 293T.109 (HiBIT-PTPN2) cell line was generated by ectopically expressing PTPN2 with N-terminal HiBIT fusion tag in 293T WT cell line purchased from ATCC (Manassas, VA, USA). Cell culture flasks and 384-well microplates were acquired from VWR (Radnor, PA, USA).
PTPN2 degradation was determined based on quantification of luminescent signal using Nano-Glo® HiBIT Lytic Assay kit. Test compounds were added to the 384-well plate from a top concentration of 10 μM with 11 points, half log titration in duplicates. 293T.109 cells were added into 384-well plates at a cell density of 5000 cells per well. The plates were kept at 37° C. with 5% CO2 for 24 hours. The cells treated in the absence of the test compound were the negative control and the cells without Nano-Glo® HiBIT Lytic reagent were the positive control. After 24-hour incubation, Nano-Glo® HiBiT Lytic Assay reagents were added to the cells. Luminescence was acquired on EnVision™ Multilabel Reader (PerkinElmer, Santa Clara, CA, USA).

[2] = target: T2, PTPN2 (B16F10.4 cells) (Mus musculus, UniProt Q06180); assay: HiBiT Degradation B16F10.4 PTPN2; type: cell-based; conditions: 24.0 hours
T2 construct: HiBiT; host or cells: B16F10.4
T2 sequence (Q06180 1-406): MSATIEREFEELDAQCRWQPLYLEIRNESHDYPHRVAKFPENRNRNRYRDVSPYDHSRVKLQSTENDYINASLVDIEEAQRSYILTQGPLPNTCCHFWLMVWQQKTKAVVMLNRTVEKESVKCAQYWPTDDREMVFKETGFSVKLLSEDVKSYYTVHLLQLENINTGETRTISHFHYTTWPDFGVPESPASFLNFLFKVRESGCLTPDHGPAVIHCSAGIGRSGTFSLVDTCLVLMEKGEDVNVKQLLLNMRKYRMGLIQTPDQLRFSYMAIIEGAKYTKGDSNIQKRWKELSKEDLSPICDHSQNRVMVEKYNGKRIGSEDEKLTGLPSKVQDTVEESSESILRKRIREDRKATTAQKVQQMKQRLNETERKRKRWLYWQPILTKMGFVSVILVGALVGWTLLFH

DC50 [1]	DC50 [2]	SMILES
< 50 nM	< 50 nM	Cn1c(=O)n(C2CCC(=O)NC2=O)c2ccc([C@H]3CC[C@H](C(=O)Nc4cccc(CS(=O)(=O)N5CC[C@H](Nc6cccc(-c7sc(C(=O)O)c(OCC(=O)O)c7Cl)c6)CC5(C)C)c4)CC3)cc21 (stereo partly drawn) [Example 138, 3-(carboxymethoxy)-4-chloro-5-(3-(((4S)-1-((3-((1r,4S)-4-(1-(2,6-dioxopiperidin-3-yl)-3-methyl-2-oxo-2,3-dihydro-1H-benzo[d]imidazol-5-yl)cyclohexane-1-carboxamido)benzyl)sulfonyl)-2,2-dimethylpiperidin-4-yl)amino)phenyl)thiophene-2-carboxylic acid]
50 to 200 nM	50 to 200 nM	CC1(C)C[C@@H](Nc2cccc(-c3sc(C(=O)O)c(OCC(=O)O)c3Cl)c2)CCN1S(=O)(=O)Cc1cccc(NC(=O)N2CCC(c3ccc4c(c3)C3(CC3)C(=O)N4C3CCC(=O)NC3=O)CC2)c1 (some centres unmarked) [Example 150]
50 to 200 nM	50 to 200 nM	CC(C)n1c(=O)n(C2CCC(=O)NC2=O)c2ccc(C3CCN(C(=O)Nc4cccc(CS(=O)(=O)N5CC[C@H](Nc6cccc(-c7sc(C(=O)O)c(OCC(=O)O)c7Cl)c6)CC5(C)C)c4)CC3)cc21 (some centres unmarked) [Example 137]
200 to 1000 nM	200 to 1000 nM	CC1(C)C[C@@H](Nc2cccc(-c3sc(C(=O)O)c(OCC(=O)O)c3Cl)c2)CCN1S(=O)(=O)Cc1cccc(NC(=O)CNc2ccc3c(c2)C(=O)N(C2CCC(=O)NC2=O)C3=O)c1 (stereo partly drawn) [Example 34, 3-(carboxymethoxy)-4-chloro-5-[3-[[(4S)-1-[[3-[[2-[[2-(2,6-dioxo-3-piperidyl)-1,3-dioxo-isoindolin-5-yl]amino]acetyl]amino]phenyl]methylsulfonyl]-2,2-dimethyl-4-piperidyl]amino]phenyl]thiophene-2-carboxylic acid]
50 to 200 nM	< 50 nM	Cn1c(=O)n(C2CCC(=O)NC2=O)c2ccc(C3CCN(C(=O)Nc4cccc(CS(=O)(=O)N5CC[C@@H](Nc6cccc(-c7sc(C(=O)O)c(OCC(=O)O)c7Cl)c6F)CC5(C)C)c4)CC3)cc21 (stereo partly drawn) [Example 135, 3-(carboxymethoxy)-4-chloro-5-[3-[[(4R)-1-[[3-[[4-[1-(2,6-dioxo-3-piperidyl)-3-methyl-2-oxo-benzimidazol-5-yl]piperidine-1-carbonyl]amino]phenyl]methylsulfonyl]-2,2-dimethyl-4-piperidyl]amino]-2-fluoro-phenyl]thiophene-2-carboxylic acid]
200 to 1000 nM	50 to 200 nM	Cn1c(=O)n(C2CCC(=O)NC2=O)c2ccc(-c3cnn(CC(=O)Nc4cccc(CS(=O)(=O)N5CC[C@H](Nc6cccc(-c7sc(C(=O)O)c(OCC(=O)O)c7Cl)c6)CC5(C)C)c4)c3)cc21 (stereo partly drawn) [Example 194, 3-(carboxymethoxy)-4-chloro-5-[3-[[(4S)-1-[[3-[[2-[4-[1-(2,6-dioxo-3-piperidyl)-3-methyl-2-oxo-benzimidazol-5-yl]pyrazol-1-yl]acetyl]amino]phenyl]methylsulfonyl]-2,2-dimethyl-4-piperidyl]amino]phenyl]thiophene-2-carboxylic acid]
≥ 1000 nM	50 to 200 nM	Cn1c(=O)n(C2CCC(=O)NC2=O)c2ccc([C@@H]3CN(C(=O)Nc4cccc(CS(=O)(=O)N5CC[C@H](Nc6cccc(-c7sc(C(=O)O)c(OCC(=O)O)c7Cl)c6)CC5(C)C)c4)CC[C@H]3F)cc21 (stereo partly drawn) [Example 213, 3-(carboxymethoxy)-4-chloro-5-[3-[[(4S)-1-[[3-[[(3R,4R)-3-[1-(2,6-dioxo-3-piperidyl)-3-methyl-2-oxo-benzimidazol-5-yl]-4-fluoro-piperidine-1-carbonyl]amino]phenyl]methylsulfonyl]-2,2-dimethyl-4-piperidyl]amino]phenyl]thiophene-2-carboxylic acid]
200 to 1000 nM	≥ 1000 nM	O=C(O)COc1c(C(=O)O)sc(-c2cccc(NC3CCN(S(=O)(=O)Cc4cccc(NC(=O)C5CCN(C(=O)CNc6cccc7c6C(=O)N(C6CCC(=O)NC6=O)C7=O)CC5)c4)CC3)c2)c1Cl (centres unmarked) [Example 16]
50 to 200 nM	50 to 200 nM	CC1(C)C[C@@H](Nc2cccc(-c3sc(C(=O)O)c(OCC(=O)O)c3Cl)c2)CCN1S(=O)(=O)Cc1cccc(NC(=O)N2CCC(c3ccc4c(c3)n(C(C)(C)C)c(=O)n4C3CCC(=O)NC3=O)CC2)c1 (stereo partly drawn) [Example 186, 5-(3-(((4S)-1-((3-(4-(3-(tert-butyl)-1-(2,6-dioxopiperidin-3-yl)-2-oxo-2,3-dihydro-1H-benzo[d]imidazol-5-yl)piperidine-1-carboxamido)benzyl)sulfonyl)-2,2-dimethylpiperidin-4-yl)amino)phenyl)-3-(carboxymethoxy)-4-chlorothiophene-2-carboxylic acid]
200 to 1000 nM	≥ 1000 nM	O=C(O)COc1c(C(=O)O)sc(-c2cccc(NC3CCN(S(=O)(=O)C(c4ccccc4)c4cccc(NC(=O)CNc5ccc6c(c5)C(=O)N(C5CCC(=O)NC5=O)C6=O)c4)CC3)c2)c1Cl (centres unmarked) [Example 42, 3-(carboxymethoxy)-4-chloro-5-(3-((1-(((3-(2-((2-(2,6-dioxopiperidin-3-yl)-1,3-dioxoisoindolin-5-yl)amino)acetamido)phenyl)(phenyl)methyl)sulfonyl)piperidin-4-yl)amino)phenyl)thiophene-2-carboxylic acid]
50 to 200 nM	200 to 1000 nM	Cn1c(=O)n(C2CCC(=O)NC2=O)c2ccc(N3CC(OCC(=O)Nc4cccc(CS(=O)(=O)N5CC[C@H](Nc6cccc(-c7sc(C(=O)O)c(OCC(=O)O)c7Cl)c6)CC5(C)C)c4)C3)cc21 (stereo partly drawn) [Example 107, 3-(carboxymethoxy)-4-chloro-5-[3-[[(4S)-1-[[3-[[2-[1-[1-(2,6-dioxo-3-piperidyl)-3-methyl-2-oxo-benzimidazol-5-yl]azetidin-3-yl]oxyacetyl]amino]phenyl]methylsulfonyl]-2,2-dimethyl-4-piperidyl]amino]phenyl]thiophene-2-carboxylic acid]
50 to 200 nM	50 to 200 nM	Cn1c(=O)n(C2CCC(=O)NC2=O)c2ccc(C3CCN(C(=O)Nc4cccc(CS(=O)(=O)N5CCC(Nc6cccc(-c7sc(C(=O)O)c(OCC(=O)O)c7Cl)c6F)CC5)c4)CC3)cc21 (centres unmarked) [Example 123, 3-(carboxymethoxy)-4-chloro-5-[3-[[1-[[3-[[4-[1-(2,6-dioxo-3-piperidyl)-3-methyl-2-oxo-benzimidazol-5-yl]piperidine-1-carbonyl]amino]phenyl]methylsulfonyl]-4-piperidyl]amino]-2-fluoro-phenyl]thiophene-2-carboxylic acid]
–	200 to 1000 nM	Cn1c(=O)n(C2CCC(=O)NC2=O)c2ccc(N3CCCC4(CN(C(=O)Nc5cccc(CS(=O)(=O)N6CC[C@H](Nc7cccc(-c8sc(C(=O)O)c(OCC(=O)O)c8Cl)c7)CC6(C)C)c5)C4)C3)cc21 (some centres unmarked) [Example 141]
200 to 1000 nM	–	CC1(C)C[C@@H](Nc2cccc(-c3sc(C(=O)O)c(OCC(=O)O)c3Cl)c2)CCN1S(=O)(=O)Cc1cccc(NC(=O)N2CCCN(c3ccc4c5c(cccc35)N(C3CCC(=O)NC3=O)C4=O)CC2)c1 (stereo partly drawn) [Example 164, 3-(carboxymethoxy)-4-chloro-5-(3-(((4S)-1-((3-(4-(1-(2,6-dioxopiperidin-3-yl)-2-oxo-1,2-dihydrobenzo[cd]indol-5-yl)-1,4-diazepane-1-carboxamido)benzyl)sulfonyl)-2,2-dimethylpiperidin-4-yl)amino)phenyl)thiophene-2-carboxylic acid]
